Earlier results as cited in article PMC9516332 (Frontiers in Oncology, 2022).
Like-named read-outs stand apart in the source and are kept apart here.

How the values were obtained:
[1] = biological target: panel of 255 wild-type kinases (Homo sapiens, UniProt P17252); conditions: kinase PKCα, 1 µmol/L single concentration, cited from earlier work
[2] = biological target: panel of 255 wild-type kinases (Homo sapiens, UniProt Q15418); conditions: kinase RSK1, 1 µmol/L single concentration, cited from earlier work
[3] = biological target: panel of 255 wild-type kinases (Homo sapiens, UniProt Q9UK32); conditions: kinase RSK4, 1 µmol/L single concentration, cited from earlier work
[4] = biological target: panel of 255 wild-type kinases (Homo sapiens, UniProt Q15349); conditions: kinase RSK3, 1 µmol/L single concentration, cited from earlier work
[5] = biological target: T1, panel of 255 wild-type kinases (Homo sapiens, UniProt Q13043); conditions: MST1, 1 µmol/L single concentration, cited from earlier work
T1 sequence (Q13043 1-487): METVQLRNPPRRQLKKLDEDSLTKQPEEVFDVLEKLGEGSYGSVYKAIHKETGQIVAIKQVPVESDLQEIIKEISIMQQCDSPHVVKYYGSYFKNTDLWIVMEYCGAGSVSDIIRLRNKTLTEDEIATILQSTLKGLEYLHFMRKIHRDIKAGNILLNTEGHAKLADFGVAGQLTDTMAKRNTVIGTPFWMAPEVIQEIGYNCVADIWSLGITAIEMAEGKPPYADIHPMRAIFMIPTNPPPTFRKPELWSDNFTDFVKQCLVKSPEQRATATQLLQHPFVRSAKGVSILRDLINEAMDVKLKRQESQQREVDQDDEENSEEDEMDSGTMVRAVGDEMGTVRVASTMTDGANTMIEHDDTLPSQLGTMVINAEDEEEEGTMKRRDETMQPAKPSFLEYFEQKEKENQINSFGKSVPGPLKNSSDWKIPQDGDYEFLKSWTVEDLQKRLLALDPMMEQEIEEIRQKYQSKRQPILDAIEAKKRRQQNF

[6] = biological target: panel of 255 wild-type kinases (Homo sapiens, UniProt P05771); conditions: kinase PKCβ1, 1 µmol/L single concentration, cited from earlier work
[7] = biological target: panel of 255 wild-type kinases (Homo sapiens, UniProt P49840); conditions: kinase GSK3α, 1 µmol/L single concentration, cited from earlier work
[8] = biological target: T2, panel of 255 wild-type kinases (Homo sapiens, UniProt Q9NWZ3); conditions: kinase IRAK4, 1 µmol/L single concentration, cited from earlier work
T2 sequence (Q9NWZ3 1-460): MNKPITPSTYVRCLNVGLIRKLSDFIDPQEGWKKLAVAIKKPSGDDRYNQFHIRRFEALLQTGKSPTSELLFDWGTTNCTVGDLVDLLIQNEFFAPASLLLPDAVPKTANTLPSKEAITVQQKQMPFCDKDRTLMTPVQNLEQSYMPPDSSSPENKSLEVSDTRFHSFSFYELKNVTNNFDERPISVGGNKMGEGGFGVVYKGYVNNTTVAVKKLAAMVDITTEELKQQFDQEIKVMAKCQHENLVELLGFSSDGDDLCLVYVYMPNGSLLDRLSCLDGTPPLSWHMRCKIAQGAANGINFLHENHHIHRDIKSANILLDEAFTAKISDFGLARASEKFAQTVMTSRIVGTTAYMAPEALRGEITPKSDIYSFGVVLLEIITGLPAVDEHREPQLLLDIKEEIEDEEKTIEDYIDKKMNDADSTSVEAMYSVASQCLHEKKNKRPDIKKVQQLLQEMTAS

[9] = biological target: panel of 255 wild-type kinases (Homo sapiens, UniProt Q04912); conditions: kinase RON, 1 µmol/L single concentration, cited from earlier work
[10] = biological target: panel of 255 wild-type kinases (Homo sapiens, UniProt P07949); conditions: kinase RET, 1 µmol/L single concentration, cited from earlier work
[11] = biological target: panel of 255 wild-type kinases (Homo sapiens, UniProt P17612); conditions: kinase PKACα, 1 µmol/L single concentration, cited from earlier work
[12] = biological target: panel of 255 wild-type kinases (Homo sapiens, UniProt Q9UQM7); conditions: CaMK2α kinase assay, 1 µmol/L single concentration, cited from earlier work
[13] = biological target: panel of 255 wild-type kinases (Homo sapiens, UniProt P54756); conditions: kinase EPHA5, 1 µmol/L single concentration, cited from earlier work
[14] = biological target: panel of 255 wild-type kinases (Homo sapiens, UniProt Q13464); conditions: kinase ROCK1, 1 µmol/L single concentration, cited from earlier work
[15] = ref DOI: 10.1158/1535-7163.MCT-18-0877
[16] = ref DOI: 10.1371/journal.pone.0092146

Structure (SMILES)	%-inhibition at 1 µmol/L, PKCα [1, 15] [%]	%-inhibition at 1 µmol/L, RSK1 [2, 15] [%]	%-inhibition at 1 µmol/L, RSK4 [3, 15] [%]	%-inhibition at 1 µmol/L, RSK3 [4, 15] [%]	%-inhibition, MST1 [5, 15] [%]	%-inhibition at 1 µmol/L, PKCβ1 [6, 15] [%]	%-inhibition at 1 µmol/L, GSK3α [7, 15] [%]	%-inhibition at 1 µmol/L, IRAK4 [8, 15] [%]	%-inhibition at 1 µmol/L, RON [9, 15] [%]	%-inhibition at 1 µmol/L, RET [10, 15] [%]	%-inhibition at 1 µmol/L, PKACα [11, 15] [%]	%-inhibition CaMK2α [12, 15] [%]	%-inhibition at 1 µmol/L, EPHA5 [13, 15] [%]	%-inhibition at 1 µmol/L, ROCK1 [14, 15] [%]	%-inhibition at 1 µmol/L, PKCα [1, 16] [%]	%-inhibition at 1 µmol/L, RSK1 [2, 16] [%]	%-inhibition at 1 µmol/L, RSK4 [3, 16] [%]	%-inhibition at 1 µmol/L, RSK3 [4, 16] [%]	%-inhibition, MST1 [5, 16] [%]	%-inhibition at 1 µmol/L, PKCβ1 [6, 16] [%]	also measured
C=CC(=O)N1CCC[C@@H](n2nc(-c3ccc(Oc4ccccc4)cc3)c3c(N)ncnc32)C1 [ibrutinib]	0.745	5.47	5.52	9	4	-3	2.24	-5	7	88	-11	-1.35	26	-5.42	–	–	–	–	–	–	–
C=CC(=O)Nc1cc(Nc2nccc(-c3cn(C)c4ccccc34)n2)c(OC)cc1N(C)CCN(C)C [osimertinib]	11	42	38	53	1.52	9	15	-2.76	5.69	7	-11	2	-0.189	-5	–	–	–	–	–	–	–
CC(=O)Nc1cccc(-n2c(=O)n(C3CC3)c(=O)c3c(Nc4ccc(I)cc4F)n(C)c(=O)c(C)c32)c1 [trametinib]	–	–	–	–	–	–	–	–	–	–	–	–	–	–	-5	-10	0.208	-5	-3.74	-3.47	%-inhibition at 1 µmol/L, GSK3α [7, 16]: 1.59%; %-inhibition at 1 µmol/L, IRAK4 [8, 16]: -5%; %-inhibition at 1 µmol/L, RON [9, 16]: -6.44%; %-inhibition at 1 µmol/L, RET [10, 16]: -8%; %-inhibition at 1 µmol/L, PKACα [11, 16]: 8.52%; %-inhibition CaMK2α [12, 16]: -1.65%; %-inhibition at 1 µmol/L, EPHA5 [13, 16]: -2.67%; %-inhibition at 1 µmol/L, ROCK1 [14, 16]: 3.21%
CCCS(=O)(=O)Nc1ccc(F)c(C(=O)c2c[nH]c3ncc(-c4ccc(Cl)cc4)cc23)c1F [vemurafenib]	–	–	–	–	–	–	–	–	–	–	–	–	–	–	-3.61	-1.32	-3	-0.497	51	-3.81	%-inhibition at 1 µmol/L, GSK3α [7, 16]: 25%; %-inhibition at 1 µmol/L, IRAK4 [8, 16]: -4.29%; %-inhibition at 1 µmol/L, RON [9, 16]: -2%; %-inhibition at 1 µmol/L, RET [10, 16]: 32%; %-inhibition at 1 µmol/L, PKACα [11, 16]: -4%; %-inhibition CaMK2α [12, 16]: -4.25%; %-inhibition at 1 µmol/L, EPHA5 [13, 16]: 14%; %-inhibition at 1 µmol/L, ROCK1 [14, 16]: 1.28%
